Assay: Stability of the independent neat fluid by 1H NMR
Format: physicochemical
Conditions: neat premix fluid, storage
Description: (§1) Synthetic Example 1′ was prepared as described in General Method A, but using 10 g of L-Cystine, 17.0 g of dodecanol, and 17.4 g PTSA·H2O. The isolated fluid of Synthetic Example 1′ was then mixed with cyclamen aldehyde as described in General Method B yielding Synthetic Example 1.
as §1, with “2′” for “1′”, “5.0” for “10”, “2,6-Diaminoheptanedioic acid, 10.5” for “L-Cystine, 17.0”, “11” for “17.4”, “with 15 wt % ethanol, and” for “with”, “2A.” for “1.”
Synthetic Example 2′ was prepared as described in General Method A, but using 5.0 g of 2,6-Diaminoheptanedioic acid, 10.8 g of dodecanol, and 11.1 g PTSA H2O. The isolated fluid of Synthetic Example 2′ was then mixed with 15 wt % ethanol, and δ-Damascone, as described in General Method B yielding Synthetic Example 2B.

## CCCCCCCCCCCCOC(=O)C(CCCC(N=CC(C)Cc1ccc(C(C)C)cc1)C(=O)OCCCCCCCCCCCC)N=CC(C)Cc1ccc(C(C)C)cc1 (centres unmarked) [Synthetic Example 2A]
  Stability of the independent fluid by 1H NMR: stable for several months

## CCCCCCCCCCCCOC(=O)C(CCCC(NC(C)CC(=O)C1C(C)C=CCC1(C)C)C(=O)OCCCCCCCCCCCC)NC(C)CC(=O)C1C(C)C=CCC1(C)C (centres unmarked) [Synthetic Example 2B]
  Stability of the independent fluid by 1H NMR: stable for several months

— patent publication US12600926B2, “Treatment compositions with modified amino acid dimers for delivering a benefit agent” (The Procter & Gamble Company, priority 2022, dated 2026)
